Test results as given in US9708336B2, “Metallo-beta-lactamase inhibitors” (priority 2014, dated 2017).
Where two headings read alike, the source gives them in different places.

Experiments:
[1] = system: Escherichia coli expressing NDM-1 (CLB30016); assay: Antibiotic potentiation activity: synergistic concentration (MITC95) with imipenem, OD600 growth; type: cell-based; conditions: concentration giving 95% inhibition of bacterial growth
Method in brief: (§1)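 Growth after 22–24 h at 35 °C is measured spectrophotometrically for bacteria incubated with compound plus imipenem (4 μg/ml in-well, or 1 μg/ml). Cells come from overnight agar colonies resuspended in saline and diluted 1:100 in 1.1× CAMHB.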

[2] = system: Klebsiella pneumoniae expressing VIM-1 (IHMA599644); assay: as above; type: cell-based; conditions: concentration giving 95% inhibition of bacterial growth
Method in brief: as §1

[3] = system: Serratia marcescens expressing IMP-1 (CL5741); assay: as above; type: cell-based; conditions: concentration giving 95% inhibition of bacterial growth
Method in brief: as §1

NDM-1 = NDM-1 (Klebsiella pneumoniae, UniProt C7C422); assay: biochemical; type: biochemical; conditions: fluorescence assay with CCF2-FA substrate; read-out: NDM-1 IC50
Sequence of NDM-1 (C7C422 whole entry, looked up, species assumed): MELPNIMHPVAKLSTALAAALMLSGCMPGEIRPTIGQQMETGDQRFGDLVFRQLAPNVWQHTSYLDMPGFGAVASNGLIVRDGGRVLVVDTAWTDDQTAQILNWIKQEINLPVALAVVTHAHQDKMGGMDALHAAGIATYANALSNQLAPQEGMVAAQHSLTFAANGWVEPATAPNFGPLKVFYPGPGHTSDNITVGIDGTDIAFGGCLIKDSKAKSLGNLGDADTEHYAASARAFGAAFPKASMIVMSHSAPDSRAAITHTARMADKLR

VIM-1 = VIM-1 (Pseudomonas aeruginosa (strain ATCC 15692 / DSM 22644 / CIP 104116 / JCM 14847 / LMG 12228 / 1C / PRS 101 / PAO1), UniProt A0A0F7KYQ8); assay: Enzyme activity: determination of IC50, fluorescence assay with CCF2-FA substrate (VIM-1); type: biochemical
IMP-1 = IMP-1 (Serratia marcescens, UniProt P52699); assay: biochemical; type: biochemical; conditions: fluorescence assay with CCF2-FA substrate; read-out: IMP-1 IC50
Sequence of IMP-1 (P52699 whole entry, looked up): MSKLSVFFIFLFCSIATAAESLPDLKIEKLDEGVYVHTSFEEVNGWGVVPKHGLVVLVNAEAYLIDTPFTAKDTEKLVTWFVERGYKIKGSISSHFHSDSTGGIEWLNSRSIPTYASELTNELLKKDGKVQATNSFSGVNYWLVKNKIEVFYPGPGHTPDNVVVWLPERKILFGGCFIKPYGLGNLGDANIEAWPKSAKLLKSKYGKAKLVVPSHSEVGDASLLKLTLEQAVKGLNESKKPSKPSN

[4] = fluorescence assay with CCF2-FA substrate, read-out: VIM-1 IC50
[5] = VIM-1 IC50, fluorescence assay with CCF2-FA substrate

Cc1ccc(Oc2cccc(S(N)(=O)=O)c2-c2nn[nH]n2)cc1 [Example 179, 2-(2H-tetrazol-5-yl)-3-(p-tolyloxy)benzenesulfonamide]
Escherichia coli expressing NDM-1 (CLB 30016) MITC95 [1]: 3.125 µM | Klebsiella pneumoniae expressing VIM-1 (IHMA 599644) MITC95 [2]: >200 µM | Serratia marcescens expressing IMP-1 (CL5741) MITC95 [3]: 37.5 µM | IC50 (NDM-1): 10.8 nM | IC50 (VIM-1; [4]): 1440 nM | IC50 (IMP-1): 406 nM

Nc1nnc(C2CCN(c3ccnc(S(N)(=O)=O)c3-c3nnn[nH]3)CC2)s1 [Example 216, 4-[4-(5-amino-1,3,4-thiadiazol-2-yl)piperidin-1-yl]-3-(1H-tetrazol-5-yl)pyridine-2-sulfonamide]
Escherichia coli expressing NDM-1 (CLB 30016) MITC95 [1]: 1.172 µM | Klebsiella pneumoniae expressing VIM-1 (IHMA 599644) MITC95 [2]: 18.75 µM | Serratia marcescens expressing IMP-1 (CL5741) MITC95 [3]: 12.5 µM | IC50 (NDM-1): 40.4 nM | IC50 (VIM-1; [5]): 96.7 nM | IC50 (IMP-1): 456 nM

NS(=O)(=O)c1nccc(N2CCC(c3ccncc3)CC2)c1-c1nnn[nH]1 [Example 217, 4-(4-pyridin-4-ylpiperidin-1-yl)-3-(1H-tetrazol-5-yl)pyridine-2-sulfonamide]
Escherichia coli expressing NDM-1 (CLB 30016) MITC95 [1]: 4.688 µM | Klebsiella pneumoniae expressing VIM-1 (IHMA 599644) MITC95 [2]: 150 µM | Serratia marcescens expressing IMP-1 (CL5741) MITC95 [3]: 12.5 µM | IC50 (NDM-1): 43 nM | IC50 (VIM-1; [5]): 49.3 nM | IC50 (IMP-1): 481 nM

NS(=O)(=O)c1nccc(N2CCC(c3cccnc3)CC2)c1-c1nnn[nH]1 [Example 218, 4-(4-pyridin-3-ylpiperidin-1-yl)-3-(1H-tetrazol-5-yl)pyridine-2-sulfonamide]
Escherichia coli expressing NDM-1 (CLB 30016) MITC95 [1]: 12.5 µM | Klebsiella pneumoniae expressing VIM-1 (IHMA 599644) MITC95 [2]: 100 µM | Serratia marcescens expressing IMP-1 (CL5741) MITC95 [3]: 25 µM | IC50 (NDM-1): 102 nM | IC50 (VIM-1; [4]): 106 nM | IC50 (IMP-1): 484 nM

CN(C)CCC1CCN(c2ccnc(S(N)(=O)=O)c2-c2nnn[nH]2)CC1 [Example 219, 4-{4-[2-(dimethylamino)ethyl]piperidin-1-yl}-3-(1H-tetrazol-5-yl)pyridine-2-sulfonamide]
Escherichia coli expressing NDM-1 (CLB 30016) MITC95 [1]: 4.688 µM | Klebsiella pneumoniae expressing VIM-1 (IHMA 599644) MITC95 [2]: 12.5 µM | Serratia marcescens expressing IMP-1 (CL5741) MITC95 [3]: 37.5 µM | IC50 (NDM-1): 1060 nM | IC50 (VIM-1; [4]): 458 nM | IC50 (IMP-1): 10400 nM

NS(=O)(=O)c1nccc(N2CCCC(c3ccccn3)C2)c1-c1nnn[nH]1 (stereo not drawn) [Example 220, 4-(3-pyridin-2-ylpiperidin-1-yl)-3-(1H-tetrazol-5-yl)pyridine-2-sulfonamide]
Escherichia coli expressing NDM-1 (CLB 30016) MITC95 [1]: 12.5 µM | Klebsiella pneumoniae expressing VIM-1 (IHMA 599644) MITC95 [2]: >200 µM | Serratia marcescens expressing IMP-1 (CL5741) MITC95 [3]: 75 µM | IC50 (NDM-1): 22.8 nM | IC50 (VIM-1; [4]): 234 nM | IC50 (IMP-1): 2390 nM

NS(=O)(=O)c1nccc(N2CCC3(CC2)NCNC3=O)c1-c1nnn[nH]1 [Example 221, 4-(4-oxo-1,3,8-triazaspiro[4.5]dec-8-yl)-3-(1H-tetrazol-5-yl)pyridine-2-sulfonamide]
Escherichia coli expressing NDM-1 (CLB 30016) MITC95 [1]: 4.688 µM | Klebsiella pneumoniae expressing VIM-1 (IHMA 599644) MITC95 [2]: 200 µM | Serratia marcescens expressing IMP-1 (CL5741) MITC95 [3]: 100 µM | IC50 (NDM-1): 251 nM | IC50 (VIM-1; [4]): 6170 nM | IC50 (IMP-1): 6170 nM

NS(=O)(=O)c1nccc(N2CCC(N3CCCC3)CC2)c1-c1nnn[nH]1 [Example 222, 4-(4-pyrrolidin-1-ylpiperidin-1-yl)-3-(1H-tetrazol-5-yl)pyridine-2-sulfonamide]
Escherichia coli expressing NDM-1 (CLB 30016) MITC95 [1]: 12.5 µM | Klebsiella pneumoniae expressing VIM-1 (IHMA 599644) MITC95 [2]: 12.5 µM | Serratia marcescens expressing IMP-1 (CL5741) MITC95 [3]: 75 µM | IC50 (NDM-1): 5150 nM | IC50 (VIM-1; [4]): 794 nM | IC50 (IMP-1): 20000 nM

CC(C1CCN(c2ccnc(S(N)(=O)=O)c2-c2nnn[nH]2)CC1)N1CCOCC1 (stereo not drawn) [Example 223, 4-[4-(1-morpholin-4-ylethyl)piperidin-1-yl]-3-(1H-tetrazol-5-yl)pyridine-2-sulfonamide]
Escherichia coli expressing NDM-1 (CLB 30016) MITC95 [1]: 4.688 µM | Klebsiella pneumoniae expressing VIM-1 (IHMA 599644) MITC95 [2]: 200 µM | Serratia marcescens expressing IMP-1 (CL5741) MITC95 [3]: 25 µM | IC50 (NDM-1): 157 nM | IC50 (VIM-1; [4]): 583 nM | IC50 (IMP-1): 1300 nM

NS(=O)(=O)c1nccc(N2CCC(c3cnc4n3CCCC4)CC2)c1-c1nnn[nH]1 [Example 225, 4-[4-(5,6,7,8-tetrahydroimidazo[1,2-a]pyridin-3-yl)piperidin-1-yl]-3-(1H-tetrazol-5-yl)pyridine-2-sulfonamide]
Escherichia coli expressing NDM-1 (CLB 30016) MITC95 [1]: 9.375 µM | Klebsiella pneumoniae expressing VIM-1 (IHMA 599644) MITC95 [2]: 50 µM | Serratia marcescens expressing IMP-1 (CL5741) MITC95 [3]: 2.344 µM | IC50 (NDM-1): 142 nM | IC50 (VIM-1; [4]): 226 nM | IC50 (IMP-1): 76.2 nM

NS(=O)(=O)c1nccc(N2CCC(N3CC[C@H](O)C3)CC2)c1-c1nnn[nH]1 [Example 226, 4-{4-[(3S)-3-hydroxypyrrolidin-1-yl]piperidin-1-yl}-3-(1H-tetrazol-5-yl)pyridine-2-sulfonamide]
Escherichia coli expressing NDM-1 (CLB 30016) MITC95 [1]: 6.25 µM | Klebsiella pneumoniae expressing VIM-1 (IHMA 599644) MITC95 [2]: 12.5 µM | Serratia marcescens expressing IMP-1 (CL5741) MITC95 [3]: 50 µM | IC50 (NDM-1): 481 nM | IC50 (VIM-1; [4]): 710 nM | IC50 (IMP-1): 3870 nM

NS(=O)(=O)c1nccc(N2CCC(N3CCNCC3)CC2)c1-c1nnn[nH]1 [Example 227, 4-(4-piperazin-1-ylpiperidin-1-yl)-3-(1H-tetrazol-5-yl)pyridine-2-sulfonamide]
Escherichia coli expressing NDM-1 (CLB 30016) MITC95 [1]: 3.125 µM | Klebsiella pneumoniae expressing VIM-1 (IHMA 599644) MITC95 [2]: 6.25 µM | Serratia marcescens expressing IMP-1 (CL5741) MITC95 [3]: 75 µM | IC50 (NDM-1): 888 nM | IC50 (VIM-1; [4]): 261 nM | IC50 (IMP-1): 7070 nM

NS(=O)(=O)c1nccc(N2CCC(n3ccnc3)CC2)c1-c1nnn[nH]1 [Example 228, 4-[4-(1H-imidazol-1-yl)piperidin-1-yl]-3-(1H-tetrazol-5-yl)pyridine-2-sulfonamide]
Escherichia coli expressing NDM-1 (CLB 30016) MITC95 [1]: 1.563 µM | Klebsiella pneumoniae expressing VIM-1 (IHMA 599644) MITC95 [2]: 37.5 µM | Serratia marcescens expressing IMP-1 (CL5741) MITC95 [3]: 37.5 µM | IC50 (NDM-1): 372 nM | IC50 (VIM-1; [4]): 343 nM | IC50 (IMP-1): 3210 nM

CN(Cc1ccccc1)c1ccnc(S(N)(=O)=O)c1-c1nnn[nH]1 [Example 229, 4-[benzyl(methyl)amino]-3-(1H-tetrazol-5-yl)pyridine-2-sulfonamide]
Escherichia coli expressing NDM-1 (CLB 30016) MITC95 [1]: 12.5 µM | Klebsiella pneumoniae expressing VIM-1 (IHMA 599644) MITC95 [2]: 6.25 µM | Serratia marcescens expressing IMP-1 (CL5741) MITC95 [3]: 50 µM | IC50 (NDM-1): 204 nM | IC50 (VIM-1; [5]): 2.22 nM | IC50 (IMP-1): 466 nM

Cn1cncc1C1CCN(c2ccnc(S(N)(=O)=O)c2-c2nnn[nH]2)CC1 [Example 230, 4-[4-(1-methyl-1H-imidazol-5-yl)piperidin-1-yl]-3-(1H-tetrazol-5-yl)pyridine-2-sulfonamide]
Escherichia coli expressing NDM-1 (CLB 30016) MITC95 [1]: 1.563 µM | Klebsiella pneumoniae expressing VIM-1 (IHMA 599644) MITC95 [2]: 37.5 µM | Serratia marcescens expressing IMP-1 (CL5741) MITC95 [3]: 18.75 µM | IC50 (NDM-1): 206 nM | IC50 (VIM-1; [5]): 164 nM | IC50 (IMP-1): 797 nM

NS(=O)(=O)c1nccc(N2CCC(Oc3ncccn3)CC2)c1-c1nnn[nH]1 [Example 231, 4-[4-(pyrimidin-2-yloxy)piperidin-1-yl]-3-(1H-tetrazol-5-yl)pyridine-2-sulfonamide]
Escherichia coli expressing NDM-1 (CLB 30016) MITC95 [1]: 4.688 µM | Klebsiella pneumoniae expressing VIM-1 (IHMA 599644) MITC95 [2]: >200 µM | Serratia marcescens expressing IMP-1 (CL5741) MITC95 [3]: 18.75 µM | IC50 (NDM-1): 10.8 nM | IC50 (VIM-1; [4]): 326 nM | IC50 (IMP-1): 423 nM

CN(c1ccnc(S(N)(=O)=O)c1-c1nnn[nH]1)C1CCCCC1 [Example 232, 4-[cyclohexyl(methyl)amino]-3-(1H-tetrazol-5-yl)pyridine-2-sulfonamide]
Escherichia coli expressing NDM-1 (CLB 30016) MITC95 [1]: 50 µM | Klebsiella pneumoniae expressing VIM-1 (IHMA 599644) MITC95 [2]: 150 µM | Serratia marcescens expressing IMP-1 (CL5741) MITC95 [3]: >200 µM | IC50 (NDM-1): 892 nM | IC50 (VIM-1; [5]): 166 nM | IC50 (IMP-1): 7640 nM
